# From patent publication US11352363B1, “Spiropyrrolidine derived antiviral agents” (Enanta Pharmaceuticals, Inc., priority 2020, dated 2022)
# Read-outs that look alike come from different tables or passages of the source.
# Target: SARS-CoV-2 3CL-protease (Severe acute respiratory syndrome coronavirus 2 (2019-nCoV) (SARS-CoV-2), UniProt P0DTD1)
# Assay: SARS-CoV-2 3C-like (3CL) protease fluorescence assay (FRET)
# Assay type: biochemical
structure (smiles),measurement,setting,value
CC(C)C[C@H](NC(=O)c1cc2c(F)cccc2[nH]1)C(=O)N1C[C@]2(C[C@H]1C#N)C(=O)Nc1c(F)cccc12 [Compound 28],IC50,read-out: FRET IC50,< 100 nM
COc1cccc2[nH]c(C(=O)N[C@@H](CC(C)C)C(=O)N3C[C@]4(C[C@H]3C(O)S(=O)(=O)O)C(=O)Nc3ccccc34)cc12 (stereo partly shown) [Compound 29],IC50,read-out: FRET IC50,< 100 nM
CC(C)C[C@@H](C(=O)N1C[C@]2(C[C@H]1C(O)S(=O)(=O)O)C(=O)Nc1ccccc12)N(C)C(=O)c1cc2c(F)cccc2[nH]1 (stereo partly shown) [Compound 30],IC50,read-out: FRET IC50,< 100 nM
COc1cccc2[nH]c(C(=O)N[C@@H](CC(C)C)C(=O)N3C[C@]4(C[C@H]3C(=O)C(=O)NC3CC3)C(=O)Nc3ccccc34)cc12 [Compound 31],IC50,read-out: FRET IC50,100 to 1000 nM
COc1cccc2[nH]c(C(=O)N[C@@H](CC(C)C)C(=O)N3C[C@]4(C[C@H]3C(=O)C(=O)NCc3ccccc3)C(=O)Nc3ccccc34)cc12 [Compound 32],IC50,read-out: FRET IC50,< 100 nM
COc1cccc2[nH]c(C(=O)N[C@@H](CC(C)C)C(=O)N3C[C@]4(C[C@H]3C(=O)C(=O)NC3CCCCC3)C(=O)Nc3ccccc34)cc12 [Compound 33],IC50,read-out: FRET IC50,< 100 nM
COc1cccc2[nH]c(C(=O)N(C)[C@@H](CC(C)C)C(=O)N3C[C@]4(C[C@H]3C(=O)C(=O)NC3CCCCC3)C(=O)Nc3ccccc34)cc12 [Compound 34],IC50,read-out: FRET IC50,> 1000 nM
CC(C)C[C@@H](C(=O)N1C[C@]2(C[C@H]1C(=O)C(=O)NC1CCCCC1)C(=O)Nc1ccccc12)N(C)C(=O)c1cc2c(F)cccc2[nH]1 [Compound 35],IC50,read-out: FRET IC50,> 1000 nM
CC(C)C[C@@H](C(=O)N1C[C@]2(C[C@H]1C(=O)C(=O)NC1CC1)C(=O)Nc1ccccc12)N(C)C(=O)c1cc2c(F)cccc2[nH]1 [Compound 36],IC50,read-out: FRET IC50,100 to 1000 nM
COc1cccc2[nH]c(C(=O)N[C@@H](CC(C)C)C(=O)N3C[C@]4(C[C@H]3C(=O)O)C(=O)Nc3ccccc34)cc12 [Compound 37],IC50,read-out: FRET IC50,100 to 1000 nM
COc1cccc2[nH]c(C(=O)N[C@@H](CC(C)C)C(=O)N3C[C@]4(C[C@H]3C(=O)NS(=O)(=O)C3CC3)C(=O)Nc3ccccc34)cc12 [Compound 38],IC50,read-out: FRET IC50,> 1000 nM
CC(C)C[C@@H](C(=O)N1C[C@]2(C[C@H]1C#N)C(=O)Nc1ccccc12)N(C)C(=O)OCc1ccccc1 [Compound 39],IC50,read-out: FRET IC50,< 100 nM
CN(C(=O)OCc1ccccc1)[C@@H](CC(C)(C)C)C(=O)N1C[C@]2(C[C@H]1C#N)C(=O)Nc1ccccc12 [Compound 40],IC50,read-out: FRET IC50,< 100 nM
COc1cccc2[nH]c(C(=O)N(C)[C@@H](CC(C)C)C(=O)N3C[C@]4(C[C@H]3C#N)C(=O)Nc3ccccc34)cc12 [Compound 42],IC50,read-out: FRET IC50,< 100 nM
CC(C)C[C@@H](C(=O)N1C[C@]2(C[C@H]1C#N)C(=O)Nc1ccccc12)N(C)C(=O)c1sc2cc(F)ccc2c1Cl [Compound 43],IC50,read-out: FRET IC50,100 to 1000 nM
CC(C)C[C@@H](C(=O)N1C[C@]2(C[C@H]1C#N)C(=O)Nc1ccccc12)N(C)C(=O)c1cc2c(F)cccc2[nH]1 [Compound 44],IC50,read-out: FRET IC50,< 100 nM
CC(C)C[C@@H](C(=O)N1C[C@]2(C[C@H]1C#N)C(=O)Nc1ccccc12)N(C)C(=O)c1cc2c(C3CC3)cccc2[nH]1 [Compound 45],IC50,read-out: FRET IC50,< 100 nM
CC(C)C[C@@H](C(=O)N1C[C@]2(C[C@H]1C#N)C(=O)Nc1ccccc12)N(C)C(=O)c1cc2c(F)cc(F)cc2[nH]1 [Compound 46],IC50,read-out: FRET IC50,< 100 nM
Cc1c(C(=O)N(C)[C@@H](CC(C)C)C(=O)N2C[C@]3(C[C@H]2C#N)C(=O)Nc2ccccc23)[nH]c2cc(F)cc(F)c12 [Compound 47],IC50,read-out: FRET IC50,< 100 nM
CC(C)C[C@@H](C(=O)N1C[C@]2(C[C@H]1C#N)C(=O)Nc1ccccc12)N(C)C(=O)c1[nH]c2ccccc2c1-c1ccccc1 [Compound 48],IC50,read-out: FRET IC50,100 to 1000 nM
CC(C)C[C@@H](C(=O)N1C[C@]2(C[C@H]1C#N)C(=O)Nc1ccccc12)N(C)C(=O)c1cc2c(OC(F)(F)F)cccc2[nH]1 [Compound 49],IC50,read-out: FRET IC50,< 100 nM
CC(C)C[C@@H](C(=O)N1C[C@]2(C[C@H]1C#N)C(=O)Nc1ccccc12)N(C)C(=O)c1cc2ccc(F)cc2[nH]1 [Compound 50],IC50,read-out: FRET IC50,< 100 nM
CC(C)C[C@@H](C(=O)N1C[C@]2(C[C@H]1C#N)C(=O)Nc1ccccc12)N(C)C(=O)c1cc2c(OC(F)F)cccc2[nH]1 [Compound 51],IC50,read-out: FRET IC50,< 100 nM
COc1cccc2c1cc(C(=O)N(C)[C@@H](CC(C)C)C(=O)N1C[C@]3(C[C@H]1C#N)C(=O)Nc1ccccc13)n2C [Compound 53],IC50,read-out: FRET IC50,< 100 nM
CC(C)C[C@@H](C(=O)N1C[C@]2(C[C@H]1C#N)C(=O)Nc1ccccc12)N(C)C(=O)c1cc2cc(-c3ccccc3)ccc2[nH]1 [Compound 54],IC50,read-out: FRET IC50,< 100 nM
CC(C)C[C@@H](C(=O)N1C[C@]2(C[C@H]1C#N)C(=O)Nc1ccccc12)N(C)C(=O)c1cc2ccc(-c3ccccc3)cc2[nH]1 [Compound 55],IC50,read-out: FRET IC50,< 100 nM
CC(C)C[C@@H](C(=O)N1C[C@]2(C[C@H]1C#N)C(=O)Nc1ccccc12)N(C)C(=O)c1cc2cc(C(C)(C)C)ccc2[nH]1 [Compound 56],IC50,read-out: FRET IC50,< 100 nM
CC(C)C[C@@H](C(=O)N1C[C@]2(C[C@H]1C#N)C(=O)Nc1ccccc12)N(C)C(=O)c1cc2ccc(C(C)(C)C)cc2[nH]1 [Compound 57],IC50,read-out: FRET IC50,< 100 nM
COc1ccc(Cl)c(C(=O)N(C)[C@@H](CC(C)C)C(=O)N2C[C@]3(C[C@H]2C#N)C(=O)Nc2ccccc23)c1 [Compound 58],IC50,read-out: FRET IC50,< 100 nM
CC(C)C[C@@H](C(=O)N1C[C@]2(C[C@H]1C#N)C(=O)Nc1ccccc12)N(C)C(=O)c1ncccc1Cl [Compound 59],IC50,read-out: FRET IC50,< 100 nM
CC(C)C[C@@H](C(=O)N1C[C@]2(C[C@H]1C#N)C(=O)Nc1ccccc12)N(C)C(=O)c1cncc(C#N)c1 [Compound 60],IC50,read-out: FRET IC50,< 100 nM
CC(C)C[C@@H](C(=O)N1C[C@]2(C[C@H]1C#N)C(=O)Nc1ccccc12)N(C)C(=O)c1ccc(F)cc1Cl [Compound 61],IC50,read-out: FRET IC50,< 100 nM
CC(C)C[C@@H](C(=O)N1C[C@]2(C[C@H]1C#N)C(=O)Nc1ccccc12)N(C)C(=O)c1cc(F)ccc1Cl [Compound 62],IC50,read-out: FRET IC50,< 100 nM
CC(C)C[C@@H](C(=O)N1C[C@]2(C[C@H]1C#N)C(=O)Nc1ccccc12)N(C)C(=O)c1ccc(F)c(Cl)c1 [Compound 63],IC50,read-out: FRET IC50,< 100 nM
CC(C)C[C@@H](C(=O)N1C[C@]2(C[C@H]1C#N)C(=O)Nc1ccccc12)N(C)C(=O)c1c(Cl)cccc1Cl [Compound 64],IC50,read-out: FRET IC50,< 100 nM
CC(C)C[C@@H](C(=O)N1C[C@]2(C[C@H]1C#N)C(=O)Nc1ccccc12)N(C)C(=O)c1cc2c(Cl)cccc2[nH]1 [Compound 65],IC50,read-out: FRET IC50,< 100 nM
CC(C)C[C@@H](C(=O)N1C[C@]2(C[C@H]1C#N)C(=O)Nc1ccccc12)N(C)C(=O)c1cc2c(Br)ccc(Cl)c2[nH]1 [Compound 66],IC50,read-out: FRET IC50,< 100 nM
CC(C)C[C@@H](C(=O)N1C[C@]2(C[C@H]1C#N)C(=O)Nc1ccccc12)N(C)C(=O)c1cc2c(C#N)cccc2[nH]1 [Compound 67],IC50,read-out: FRET IC50,< 100 nM
CC(C)C[C@@H](C(=O)N1C[C@]2(C[C@H]1C#N)C(=O)Nc1ccccc12)N(C)C(=O)c1cc2cc(F)cc(F)c2[nH]1 [Compound 68],IC50,,< 100 nM
CC(C)C[C@@H](C(=O)N1C[C@]2(C[C@H]1C#N)C(=O)Nc1ccccc12)N(C)C(=O)c1cc2cc(F)c(F)cc2[nH]1 [Compound 69],IC50,read-out: FRET IC50,< 100 nM
CC(C)C[C@@H](C(=O)N1C[C@]2(C[C@H]1C#N)C(=O)Nc1ccccc12)N(C)C(=O)c1cc2cc(F)ccc2[nH]1 [Compound 70],IC50,read-out: FRET IC50,< 100 nM
CC(C)C[C@@H](C(=O)N1C[C@]2(C[C@H]1C#N)C(=O)Nc1ccccc12)N(C)C(=O)c1cc2c(F)ccc(F)c2[nH]1 [Compound 71],IC50,read-out: FRET IC50,< 100 nM
CC(C)C[C@@H](C(=O)N1C[C@]2(C[C@H]1C#N)C(=O)Nc1ccccc12)N(C)C(=O)c1cc2c(Cl)cc(F)cc2[nH]1 [Compound 72],IC50,read-out: FRET IC50,< 100 nM
CC(C)C[C@@H](C(=O)N1C[C@]2(C[C@H]1C#N)C(=O)Nc1ccccc12)N(C)C(=O)c1cc2c(F)c(Cl)ccc2[nH]1 [Compound 73],IC50,read-out: FRET IC50,< 100 nM
CC(C)C[C@@H](C(=O)N1C[C@]2(C[C@H]1C#N)C(=O)Nc1ccccc12)N(C)C(=O)c1cc2c(Cl)cc(Cl)cc2[nH]1 [Compound 74],IC50,read-out: FRET IC50,< 100 nM
CC(C)C[C@@H](C(=O)N1C[C@]2(C[C@H]1C#N)C(=O)Nc1ccccc12)N(C)C(=O)c1n[nH]c2ccccc12 [Compound 75],IC50,read-out: FRET IC50,< 100 nM
CC(C)C[C@@H](C(=O)N1C[C@]2(C[C@H]1C#N)C(=O)Nc1ccccc12)N(C)C(=O)c1cc2cc(Cl)cc(Cl)c2[nH]1 [Compound 76],IC50,read-out: FRET IC50,< 100 nM
CC(C)C[C@@H](C(=O)N1C[C@]2(C[C@H]1C#N)C(=O)Nc1ccccc12)N(C)C(=O)c1[nH]c2ccc(F)cc2c1Cl [Compound 77],IC50,read-out: FRET IC50,100 to 1000 nM
CC(C)C[C@@H](C(=O)N1C[C@]2(C[C@H]1C#N)C(=O)Nc1ccccc12)N(C)C(=O)c1cc2ccccc2[nH]1 [Compound 78],IC50,read-out: FRET IC50,< 100 nM
CC(C)C[C@@H](C(=O)N1C[C@]2(C[C@H]1C#N)C(=O)Nc1ccccc12)N(C)C(=O)c1cc2c(Br)cccc2[nH]1 [Compound 79],IC50,read-out: FRET IC50,< 100 nM
CN(C(=O)c1cc2c(F)cccc2[nH]1)[C@@H](Cc1ccccc1)C(=O)N1C[C@]2(C[C@H]1C#N)C(=O)Nc1ccccc12 [Compound 80],IC50,read-out: FRET IC50,< 100 nM
CN(C(=O)c1cc2c(F)cc(F)cc2[nH]1)[C@@H](Cc1ccccc1)C(=O)N1C[C@]2(C[C@H]1C#N)C(=O)Nc1ccccc12 [Compound 81],IC50,read-out: FRET IC50,< 100 nM
CC(C)C[C@@H](C(=O)N1C[C@]2(C[C@H]1C#N)C(=O)Nc1ccccc12)N(C)C(=O)c1cc2c(OC3CC3)cccc2[nH]1 [Compound 82],IC50,read-out: FRET IC50,< 100 nM
CC(C)C[C@@H](C(=O)N1C[C@]2(C[C@H]1C#N)C(=O)Nc1ccccc12)N(C)C(=O)c1cc2c(F)c(F)c(F)cc2[nH]1 [Compound 83],IC50,read-out: FRET IC50,< 100 nM
CC(C)C[C@@H](C(=O)N1C[C@]2(C[C@H]1C#N)C(=O)Nc1ccccc12)N(C)C(=O)c1cc2cc(C(C)C)ccc2[nH]1 [Compound 84],IC50,read-out: FRET IC50,< 100 nM
COc1cccc2[nH]c(C(=O)N(C)[C@@H](CC(C)(C)C)C(=O)N3C[C@]4(C[C@H]3C#N)C(=O)Nc3ccccc34)cc12 [Compound 85],IC50,read-out: FRET IC50,< 100 nM
CN(C(=O)c1cc2c(F)c(F)ccc2[nH]1)[C@@H](CC(C)(C)C)C(=O)N1C[C@]2(C[C@H]1C#N)C(=O)Nc1ccccc12 [Compound 86],IC50,read-out: FRET IC50,< 100 nM
CN(C(=O)c1cc2c(F)cccc2[nH]1)[C@@H](CC(C)(C)C)C(=O)N1C[C@]2(C[C@H]1C#N)C(=O)Nc1ccccc12 [Compound 87],IC50,read-out: FRET IC50,< 100 nM
